Here are results for four compounds from US6518259B1, “Compositions for treating autoimmune disease” (The Regents of the University of Michigan, priority 1998, dated 2003).

Where a SMILES comes first, the peptide text is derived from it. The star is where a group is joined. Cbz = O=C(OCc1ccccc1)*; CH2F = FC*

Format in all cases: cell-based, human
Experiment [1] relates to EBV transformed B cell lines from RA patients. Kind of experiment: Anti-Fas antibody CH-11-induced apoptosis of EBV transformed target cells, TUNEL assay. Particulars: prior incubation of target cells (2.5 μM DMS), 8 hr CH-11 100 ng/ml, serum-free RPMI 1640, FIG. 5B. As for the experimental part:
In some of the examples below, the TUNEL assay was used. TdT-mediated dUTP-biotin nick end-labeling (TUNEL) assay was performed as described [see (Gorczyca, W, et al. Leukemia 7, 659-70 (1993)]. Briefly, cells were fixed in 1% buffered formaldehyde (pH 7.4) for 15 min on ice, washed in phosphate-buffered saline (PBS) and stored at 4° C. in 70% ethanol. Subsequently, cells were resuspended in 50 μl of a solution containing: 5 unites of terminal deoxynucleotidyl transferase (Boehringer Mannheim, Indianapolis, Ind.), 2.5 mM CoCl2,0.2 M potassium cacodylate, 25 mM Tris-HCl, 0.25 mg/ml bovine serum albumin, 0.5 nmoles biotin-16-dUTP (Boehringer Mannheim Biochemicals, Indianapolis, Ind.). […] Green (b-dUTP) and red (DNA) fluorescence of individual cells were measured with an EPICS Elite Flow Cytometer (Coulter, Hialeah. Fla., USA).
SPP, a potent derivative of sphingosine, has been recently shown to activate a pertussis toxin-sensitive G protein and to inhibit Fas-mediated cell death, Therefore, the ability of SPP to inhibit apoptosis in RA lymphocytes was investigated Apoptosis induced by 8 hr stimulation with the anti-Fas antibody CH-11 (100 ng/ml) was determined in EBV transformed target cells in the presence FIG. 5B, dashed bars) or absence (FIG. 5B, open bars) of 2.5 μM DMS in serum-free RPMI 1640 medium supplemented with insulin and transferrin. […]

For experiment [2], the system named is EBV transformed B cell targets from RA patients. Kind of experiment: Cytolysis of EBV transformed target cells by Vγ9/Vδ2 T cells, 4 hr 51Cr release assay. As to the method: Fas-mediated cell death in-vivo is thought to be triggered, primarily, by cytotoxic T cells. […] However, susceptibility to cytolysis is markedly different between the two groups when determined using standard 4 hour ^51Cr release assays. FIG. 2C is a bar graph showing the susceptibility to cytolysis by Vγ9/Vδ2 T cell clones determined in EBV transformed lines from 23 normal controls, 18 patients with RA, 6 patients with pauciarticular-onset juvenile arthritis (“pJA”), and 3 patients with autoimmune thyroiditis. Lymphoblastoid target lines from all 23 normal controls tested were efficiently killed by Vγ9/Vδ2 clones, while none of the lines from 18 RA patients were susceptible. […]
Inhibition of Fas-mediated death signaling by SPP was also examined using γδ […]. Cytolysis of EBV transformed target cells by Vγ9/Vδ2 T cells was determined by 4 hr ^51Cr release assay (FIG. 5C) in the presence (●) or absence (∘) of 2.5 μM DMS. At the end of incubation, targets were washed and susceptibility to killing by γδ T cells was assessed.
Additionally, pre-incubating RA targets with pertussis toxin reversed their resistance to Fas-mediated and γδ T cell-mediated killing (FIGS. 5D and 5E). […] Cell death was determined using the commercial MTS kit (Promega, Madison, Wis.). […]

Experiment [3] relates to RA EBV transformed target cells. Kind of experiment: Anti-Fas antibody CH-11-induced apoptosis of RA EBV transformed target cells with MEK1 inhibitor. Particulars: 16 hr CH-11 200 ng/ml, FIG. 6. As to the method:
As noted above, it is not intended that the present invention be limited to any one inhibitor. In this example, resistance to Fas-mediated cell killing is shown to be reversed by preincubation of target cells with a MEK1 inhibitor. Apoptosis of RA EBV transformed target cells was induced by 16 hr stimulation with anti-Fas antibody CH-11 (200 ng/ml) in the presence (FIG. 6, black bars) or absence (FIG. 6, open bars) of 100 µM of the MEK1 inhibitor 2-(2′-amino3′-methoxyphenyl-oxanaphthalen-4-one) (PD098059).

The test system of experiment [4] is EBV transformed B cell lines from RA patients. Kind of experiment: Anti-Fas antibody CH-11-mediated killing of EBV transformed B cell lines, MTS kit. Particulars: preincubation 1 μg/ml for 1 hr, CH-11 100 ng/ml over a time course, FIG. 5D. As for the experimental part:
In this example, the susceptibility of lymphocytes to cell death is examined. As noted above, it is believed that prevention of immune-mediated self injury requires prompt elimination of activated lymphocytes at the end of an immune response. […] Briefly, PHA T cell lymphoblasts from 6 normal controls and 6 RA patients were established by stimulating peripheral blood mononuclear cells with 0.5 μg/ml PHA for 3 days, followed by expansion in 20 U/ml of recombinant human IL-2 (Collaborative Biomedical Products, Bedford, Mass.). Day-10 T cell lymphoblasts were incubated with 125 ng/ml of the agonist anti-Fas monoclonal antibody CH-11 (the antibody was immobilized and 1×10^5 cells per well were used). In all experiments, control mouse monoclonal IgM antibody (TEPC-183, from Sigma) was used in equivalent concentrations. Cell death was determined at different time points, using a commercial MTS kit (Promega, Madison. Wis.). Microplate wells were read by ELISA plate reader at 490 nm.
Additionally, pre-incubating RA targets with pertussis toxin reversed their resistance to Fas-mediated and γδ T cell-mediated killing (FIGS. 5D and 5E). […] Cell death was determined using the commercial MTS kit (Promega, Madison, Wis.). […] At the end of incubation, targets were washed and susceptibility to γδ T cell killing was determined using a 4 hr ^51Cr-release assay.
A general note: Tetrazolium assays rely on reduction of a dye to a coloured formazan, in cell work by metabolically active cells.

For experiment [5], the system named is caspases (CPP32, PARP cleavage). Kind of experiment: Western blot of CPP32 and PARP cleavage after anti-Fas antibody stimulation, with or without caspase inhibitor. The conditions noted are these: preincubated 1 hr with 40 μM, then 100 ng/ml anti-Fas antibody. As for the experimental part: In some examples below, Western blots were performed. For Western blot analysis, 5×10^6 cells were washed and suspended in 100 μl of lysis buffer [1% sodium dodecyl sulfate (SDS), 1 mM sodium vanadate, 10 mM Tris (pH 7.6)], and boiled for 5 min. After micro-centrifugation at 14,000 rpm, for 10 min, supernatants (cell lysates) were recovered. The protein concentration of the lysates was determined with bicinchoninic acid (BCA) protein assay reagent (Pierce). For CPP32 immunoblots, cell lysates (10-20 μg of protein per lane) were separated on 15% SDS-polyacrylamide gels under reducing conditions, transferred to polyvinylidene difluoride (PVDF) membranes (Millipore), and probed with mouse monoclonal anti-CPP32 (clone #19, IgG2a, from Signal Transduction Labs, Lexington, Ky.) followed by sheep F(ab′)2 fragment horseradish peroxidase-conjugated, anti-mouse Ig (Amersham). For PARP immunoblots, cell lysates (10 μg of protein per lane) were separated on 7.5% SDS-polyacrylamide gels, transferred to PVDF membrane, and probed with monoclonal mouse anti-human PARP antibody C2.10 (IgG1, Enzyme Systems Products Dublin, Calif.). Antibody binding was detected with an ECL detection system (Amersham).
Briefly, cells were preincubated for 1 hr in the presence or absence of 40 μM of Z-VAD-fmk, and subsequently incubated with 100 ng/ml of the anti-Fas antibody […]. At different time points thereafter, cells were collected, lysed and a Western blot analysis performed with the relevant antibodies.

Consider `CCCCCCCCCCCCCCC[C@H](O)[C@@H](N)CO` (racemic) [DHS, DL-threo-dihydrosphingosine], for which the “resistance of RA targets to apoptosis by anti-Fas antibodies” value in experiment [1] is given as “effectively reversed”. Further, in experiment [2] (prior incubation of target cells (2.5 μM DMS), 4 hr 51Cr release, FIG. 5C), the “resistance of RA targets to apoptosis by γδ T cells” value is reported as “effectively reversed”.
As to `COc1cccc(-c2cc(=O)c3ccccc3o2)c1N` [PD098059, 2-(2′-amino3′-methoxyphenyl-oxanaphthalen-4-one)], the “resistance to Fas-mediated cell killing” value in experiment [3] was “reversed”.
Consider pertussis toxin, for which the “resistance of RA targets to γδ T cell-mediated killing” value in experiment [2] (preincubation 1 μg/ml for 1 hr, 4 hr 51Cr-release, FIG. 5E) is reported as “reversed”. Besides, in experiment [4], the “resistance of RA targets to Fas-mediated killing” value is “reversed”.
`COC(=O)C[C@H](NC(=O)[C@H](C)NC(=O)[C@@H](NC(=O)OCc1ccccc1)C(C)C)C(=O)CF` [Z-VAD-fmk, N-benzyloxycarbonyl-Val-Ala-Asp(O-methyl)-fluromethylketone] (Cbz-Val-Ala-Asp(OMe)-CH2F): the “subsequent cell death after Fas ligation” value in experiment [5] was “blocks”. In addition, in experiment [5] (Western blot, FIG. 4A lower panel), the “cleavage of PARP” value is “blocks”. For the same compound, in experiment [5] (Western blot, FIG. 4A upper panel), the “proteolytic processing of CPP32” value was “blocks”.
